In test [1] the test system is RKO cells. The test is described as follows: genome-wide DNA methylation analysis (Infinium Human Methylation 450 BeadChip) in RKO cells. Particulars: for genome-wide methylation level: RKO cells, 0.5 μM AZA, 10 μM Im0 or Im3 under hypoxic conditions, FIG. 8; for genes whose methylation level was reduced by Im0 and Im3 in common, TSS±1 kb region / probes whose methylation level was reduced by Im0 and Im3 in common, TSS±1 kb region / probes whose methylation level was reduced by Im0 and Im3 in common, whole genome: β value <0.65 in Im0-treated and in Im3-treated cells of H75; for genes whose methylation was selectively reduced by this PIP, TSS±1 kb region / probes whose methylation was selectively reduced by this PIP, TSS±1 kb region / probes whose methylation was selectively reduced by this PIP, whole genome: β value <0.65 with this PIP and >0.8 with the other PIP on H75, 10 μM, 75 days, hypoxia after AZA. Type of test: cell-based. Here is the method:
(§1) The large intestine cancer cell line RKO cells were seeded at a density of 1×10^5 cells over a 6 cm dish and incubated for 24 hours. Subsequently, the culture solution was replaced with a culture solution containing 0.5 μM 5-aza-2′-deoxycytidine (AZA). The cultured cells were exposed to AZA over 2.4 hours. The cells were recovered on the 10th day, or cultured under hypoxic conditions as mentioned below.
(§2) In order to culture the cells under hypoxic conditions, the cells were cultured for 8 days under continuous aeration conditions with humidified air containing 94% N2, 5% CO2 and 1% O2 in an incubator equipped with an O2 sensor and MCO-18M regulator (Sanyo Electric Co., Ltd., Osaka, Japan). The CO2 concentration was maintained by the internal CO2 concentration regulation mechanism. Subsequently, the AZA-treated cells were treated with 0.1% DMSO containing 10 μM Im0 or Im3 for 75 days. During this operation, the medium containing PIP was replaced every 5 days. The cells were subcultured at a density of 2×10^5 cells over a 6 cm dish when becoming confluent. The cells were recovered on the 0th day (H0, before hypoxia treatment) and the 75th day (H75).
Genome-wide DNA methylation analysis was conducted as follows: first, 500 ng of genomic DNA obtained from each sample was treated with bisulfite using Zymo EZ DNA Methylation Kit (Zymo Research Corp., Irvine, Calif., USA). Whole genome amplification, labeling, hybridization and scanning were performed according to manufacturers' manuals.
Methylation analysis was conducted using Infinium Human Methylation 450 BeadChip (Illumina, Inc.) for the whole genome or in a ±1 kb region of the transcription start site (TSS) of each gene. Specifically, the ratio of probes for methylated sequences to the total of the probes for methylated sequences and probes for nonmethylated sequences (in the present specification, referred to as a “β value”) was determined. The β value is 0.00 when no methylation is found in all CpG sites, and is 1.00 when all CpG sites are methylated.
First, genes with β value >0.8 in the negative control RKO cells were selected. Genes with β value <0.5 on HO and β value >0.8 in the presence of treatment with 0.1% DMSO on H75 were further selected from the selected genes.

Test [2] has as its system RKO cells. In words: gene expression analysis by RNA deep sequencing (FPKM) in RKO cells. The settings on record: 10 μM PIP, hypoxia after AZA, FIG. 8 right graphs. It counts as cell-based. Here is the method:
as §1, §2
Next, the expression levels of particular genes were analyzed. An RNA library was prepared using TruSeq Stranded mRNA Sample Prep Kit (Illumina, Inc.) according to the manufacturer's manual. Deep sequencing was performed using Illumina HiSeq 1500 or NextSeq 500 platform. FASTQ reads were mapped using TopHat, and transcripts were assembled using Cufflinks. gene expression was expressed as FPKM (fragments per kilobase of exon per million reads mapped). The results were as shown in the right graphs of FIG. 8.

Test [3] relates to promoter region of the MLH1 gene. In words: methylation of promoter region of MLH1 gene in RKO cells, pyrosequencing. Type of test: cell-based. Here is the method:
1.0×10^5 cells of the […] cells were seeded over a 6 cm dish and treated with a medium containing 5.0 μM 5-aza-2'-deoxycytidine (AZA) over 7 days from the next day. The medium was replaced with a fresh medium every 24 hours. The cells were treated with a medium containing 10 nM trichostatin A (TSA) on the 7th day and recovered on the 8th day. […] The cells of the 8th day were cultured under hypoxic conditions of 1% O2 and 5% CO2. The cells were treated with 0.1% DMSO containing 5 μM PIP1 or PIP2, recovered on the 0th day (R0), the 20th day (R20) and the 30th day ([…]), and examined for the degree of methylation in the region from -27 to -1 of the MLH1 gene by pyrosequencing. During the treatment with PIP, the medium containing PIP1 or PIP2 was replaced every 5 days, and the cells were subcultured when becoming confluent.

Test [4] concerns MLH1 gene. The test is described as follows: expression of mRNA of the MLH1 gene in RKO cells by RT-PCR. Type of test: cell-based.
Test [5] concerns FAM-labeled double-stranded oligo DNA of 15 base pairs including a region from −22 to −8 of the MLH1 gene. The test is described as follows: gel shift assay of binding to the target sequence. Particulars: 1 μM double-stranded oligo DNA, 37° C. for 1 hour, FIG. 2A. Here is the method: PIP1 was confirmed by gel shift assay to bind to the target sequence. FAM-labeled double-stranded oligo DNA of 15 base pairs including a region from −22 to −8 of the MLH1 gene (double-stranded oligo DNA obtained by annealing sequences of SEQ ID NOs: 2 and 3) was prepared (lower part of FIG. 2A). 1 μM double-stranded oligo DNA was mixed at an indicated final concentration with PIP1 or PIP2 dissolved in 10 μL of a reaction solution containing 10 mM Tris-HCl (pH 8.0) and 10% DMSO, followed by incubation at 37° C. for 1 hour. The obtained reaction product was electrophoresed using 20% polyacrylamide gel, and double-stranded DNA on the gel was visualized using LAS-3000 (Fujifilm Corp., Japan).

The test system of test [6] is region from −27 to −1 of the MLH1 gene. The test is described as follows: in vitro methylation of MLH1 plasmid by CpG methyltransferase M.SssI, pyrosequencing. Type of test: biochemical. The settings on record: varying concentrations of PIP1, M.SssI, FIG. 3C. Here is the method: A region from −780 to +483 (SEQ ID NO: 1) of MLH1 was amplified from the genomic DNA of the RKO cells by PCR using primers of SEQ ID NOs: 6 and 7 to obtain a DNA fragment, which was then integrated into pGEM-T Easy vector (Promega Corp., Fitchburg, USA) according to the manufacturer's manual (see FIG. 3A). 1 μg of the obtained plasmid was incubated at 25° C. for 12 hours in varying concentrations of PIP1 or 40 μM of PIP2 and 1× NEB buffer solution 2 (New England Biolabs Inc., Ipswich, USA) to bind the pyrrole imidazole polyamide to the DNA. For a negative control, DMSO was added to the plasmid and incubated.
[…] of S-adenosylmethionine (New England Biolabs Inc.) and 4 units of CpG methyltransferase M.SssI (New England Biolabs Inc.) were added to each sample, and 5% DMSO was added thereto to adjust the amount to 20 μL. After incubation at 37° C. for 2 hours, the reaction was terminated by incubation at 65° C. for 20 minutes. The DNA was purified by ethanol precipitation and dissolved in 100 μL of 10 mM Tris-HCl (pH 8.0). Then, the degree of DNA methylation at various sites of the MLH1 gene was tested by pyrosequencing. The primers used were as described in the following table.

As for Me-Py-Py-Im-Py-β-Dp [Im3], in test [1], the genome-wide methylation level result is “methylation levels of genes as a whole were drastically reduced”; the “genes whose methylation level was reduced by Im0 and Im3 in common, TSS±1 kb region” value was determined as 9 genes; the “probes whose methylation level was reduced by Im0 and Im3 in common, TSS±1 kb region” value is given as 19 probes; the “probes whose methylation level was reduced by Im0 and Im3 in common, whole genome” value came to 19 probes. Besides, in test [1], the “genes whose methylation was selectively reduced by this PIP, TSS±1 kb region” value came to 254 genes; the “probes whose methylation was selectively reduced by this PIP, TSS±1 kb region” value is reported as 450 probes; the “probes whose methylation was selectively reduced by this PIP, whole genome” value is on record as 1171 probes. Further, in test [2], the “gene expression of NOSTRIN, DSCR9, SLC22A25, OR3A4P and C1WTNF6” value is “selectively maintained”; the “gene expression of TCP11, LYPDS, STAR, LOC253573 and LOC100507573” value was “maintained”.

With Me-Py-Py-Py-Py-β-Dp [Im0], in test [1], the genome-wide methylation level entry is “methylation levels of some genes were drastically reduced”; the “genes whose methylation level was reduced by Im0 and Im3 in common, TSS±1 kb region” value was 9 genes; the “probes whose methylation level was reduced by Im0 and Im3 in common, TSS±1 kb region” value is given as 19 probes; the “probes whose methylation level was reduced by Im0 and Im3 in common, whole genome” value came out at 19 probes. Moreover, in test [1], the “genes whose methylation was selectively reduced by this PIP, TSS±1 kb region” value amounted to 1110 genes; the “probes whose methylation was selectively reduced by this PIP, TSS±1 kb region” value is listed as 2135 probes; the “probes whose methylation was selectively reduced by this PIP, whole genome” value turned out to be 6099 probes. Also, the “gene expression of TCP11, LYPDS, STAR, LOC253573 and LOC100507573” value in test [2] was “maintained”.

`Nc1ncn([C@H]2C[C@H](O)[C@@H](CO)O2)c(=O)n1` [AZA, 5-aza-2′-deoxycytidine, reference compound]: the genome-wide methylation level result in test [1] is listed as “demethylated genome-wide”. Moreover, in test [3] (RKO cells, 5.0 μM AZA over 7 days, 10 nM TSA on the 7th day, FIG. 4A), the “degree of methylation in the promoter region from −27 to −1 of the MLH1 gene after demethylation treatment” value was “reduced”. In test [4] (RKO cells, 5.0 μM AZA over 7 days, 10 nM TSA on the 7th day, FIG. 4B), the “expression of mRNA of the MLH1 gene after demethylation treatment” value is on record as “restored”.

Regarding `CC(=O)Nc1cc(C(=O)Nc2cn(C)c(C(=O)NCCC(=O)Nc3cn(C)c(C(=O)Nc4cn(C)c(C(O)Nc5c[nH]c(C(=O)NCCCC(=O)Nc6cn(C)c(C(=O)Nc7cc(C(=O)NCCC(=O)Nc8cn(C)c(C(=O)Nc9cc(C(=O)Nc%10cc(C(=O)NCCC(=O)NCCCN(C)C)n(C)c%10)n(C)c9)n8)n(C)c7)n6)c5)n4)n3)n2)n(C)c1` (stereo not drawn) [PIP1, Ac-Py-Im-β-Im-Im-Py-γ-Im-Py-β-Im-Py-Py-β-Dp], in test [5], the “binding to the target double-stranded DNA (band shift)” value was “confirmed to bind to the target double-stranded DNA”. For the same molecule, the “inhibition of DNA methylation in the region from −27 to −1 of the MLH1 gene” value in test [6] was “inhibited DNA methylation in a concentration-dependent manner”. Also, the “degree of DNA methylation in the region from −27 to −1 of the MLH1 gene on R20 and R30” value in test [3] (AZA or AZA+TSA pretreated RKO cells, hypoxic conditions 1% O2, 5 μM PIP, FIGS. 6A and 6B) is recorded as “an increase in the degree of methylation was suppressed”. Besides, in test [3] (sites distant from the target site, hypoxic conditions, 5 μM PIP, FIG. 6E), the “methylation in a −70 region, a −63 region, a +156 region, and a +171 region of the MLH1 gene” value is “suppress methylation”. For the same molecule, the “expression of mRNA of the MLH1 gene, which is reduced along with methylation” value in test [4] (AZA+TSA-treated cells, hypoxic conditions, 5 μM PIP, FIGS. 6C and 6D) was “maintained”.

The values above are taken from US20210106612A1, “TARGET GENE TRANSCRIPTIONAL REPRESSION INHIBITOR THAT CAN BE DESIGNED IN A SEQUENCE-SPECIFIC MANNER, COMPOSITION CONTAINING SAME, AND USE THEREOF” (National University Corporation Chiba University, priority 2016, published 2021).
